Measured values taken from ChEMBL document CHEMBL3627608, “Crystal structures of human RIP2 kinase catalytic domain complexed with ATP-competitive inhibitors: Foundations for understanding inhibitor selectivity” (Bioorg Med Chem, 2015).

Columns and labels:
[1] = target: T1, Serine/threonine-protein kinase ULK2 (Homo sapiens) (UniProt Q8IYT8); test: Inhibition of ULK2 (unknown origin) at 10 uM after 120 mins P33 radiolabeled kinase activity assay
T1 sequence (whole entry): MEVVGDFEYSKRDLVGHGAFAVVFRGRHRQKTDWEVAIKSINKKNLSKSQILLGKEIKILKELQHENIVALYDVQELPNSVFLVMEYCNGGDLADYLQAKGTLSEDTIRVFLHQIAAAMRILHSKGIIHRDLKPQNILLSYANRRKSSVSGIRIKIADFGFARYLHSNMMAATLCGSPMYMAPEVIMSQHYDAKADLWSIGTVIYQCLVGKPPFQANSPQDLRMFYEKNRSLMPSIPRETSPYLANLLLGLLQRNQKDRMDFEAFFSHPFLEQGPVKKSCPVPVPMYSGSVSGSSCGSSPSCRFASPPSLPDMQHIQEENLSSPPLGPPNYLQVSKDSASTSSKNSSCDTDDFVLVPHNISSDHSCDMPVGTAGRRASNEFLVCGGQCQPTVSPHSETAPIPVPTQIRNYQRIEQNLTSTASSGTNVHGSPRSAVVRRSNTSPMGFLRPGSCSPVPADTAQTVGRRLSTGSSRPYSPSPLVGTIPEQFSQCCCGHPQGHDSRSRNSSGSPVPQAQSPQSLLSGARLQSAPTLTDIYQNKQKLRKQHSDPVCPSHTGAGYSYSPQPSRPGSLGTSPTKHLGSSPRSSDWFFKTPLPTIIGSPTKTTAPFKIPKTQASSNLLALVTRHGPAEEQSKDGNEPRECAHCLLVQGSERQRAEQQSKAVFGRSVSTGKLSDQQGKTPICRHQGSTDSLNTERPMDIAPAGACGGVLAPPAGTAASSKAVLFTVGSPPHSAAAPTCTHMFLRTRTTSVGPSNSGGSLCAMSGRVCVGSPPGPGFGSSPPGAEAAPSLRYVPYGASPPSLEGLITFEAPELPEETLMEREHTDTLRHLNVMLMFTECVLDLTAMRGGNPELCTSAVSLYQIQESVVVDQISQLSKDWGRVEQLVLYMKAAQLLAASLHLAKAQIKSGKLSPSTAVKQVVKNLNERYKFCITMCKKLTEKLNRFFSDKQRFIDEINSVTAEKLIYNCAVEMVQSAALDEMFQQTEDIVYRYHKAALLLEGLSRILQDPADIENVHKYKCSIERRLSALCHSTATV

[2] = target: T2, Mitogen-activated protein kinase kinase kinase 2 (Homo sapiens) (UniProt Q9Y2U5); test: Inhibition of MEKK2 (unknown origin) at 10 uM after 120 mins P33 radiolabeled kinase activity assay
T2 sequence (whole entry): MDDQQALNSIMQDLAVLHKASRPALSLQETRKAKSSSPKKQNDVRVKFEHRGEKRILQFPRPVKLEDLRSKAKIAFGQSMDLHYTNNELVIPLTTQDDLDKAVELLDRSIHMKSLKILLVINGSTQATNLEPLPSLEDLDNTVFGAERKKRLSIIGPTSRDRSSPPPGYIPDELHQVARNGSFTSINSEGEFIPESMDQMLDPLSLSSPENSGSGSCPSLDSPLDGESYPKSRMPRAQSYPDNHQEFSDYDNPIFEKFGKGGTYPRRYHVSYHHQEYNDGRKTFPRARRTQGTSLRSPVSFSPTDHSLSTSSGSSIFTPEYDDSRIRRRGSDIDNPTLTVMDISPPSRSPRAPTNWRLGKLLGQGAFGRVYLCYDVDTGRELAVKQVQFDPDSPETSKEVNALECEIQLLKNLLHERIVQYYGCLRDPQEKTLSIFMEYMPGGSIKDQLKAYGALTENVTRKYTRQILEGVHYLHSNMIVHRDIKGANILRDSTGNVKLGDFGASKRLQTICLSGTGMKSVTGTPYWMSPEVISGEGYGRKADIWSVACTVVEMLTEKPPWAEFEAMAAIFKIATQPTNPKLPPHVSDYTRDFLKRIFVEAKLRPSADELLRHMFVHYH

[3] = target: T3, Dual serine/threonine and tyrosine protein kinase (Homo sapiens) (UniProt Q6XUX3); test: Inhibition of RIPK5 (unknown origin) at 10 uM after 120 mins P33 radiolabeled kinase activity assay
T3 sequence (whole entry): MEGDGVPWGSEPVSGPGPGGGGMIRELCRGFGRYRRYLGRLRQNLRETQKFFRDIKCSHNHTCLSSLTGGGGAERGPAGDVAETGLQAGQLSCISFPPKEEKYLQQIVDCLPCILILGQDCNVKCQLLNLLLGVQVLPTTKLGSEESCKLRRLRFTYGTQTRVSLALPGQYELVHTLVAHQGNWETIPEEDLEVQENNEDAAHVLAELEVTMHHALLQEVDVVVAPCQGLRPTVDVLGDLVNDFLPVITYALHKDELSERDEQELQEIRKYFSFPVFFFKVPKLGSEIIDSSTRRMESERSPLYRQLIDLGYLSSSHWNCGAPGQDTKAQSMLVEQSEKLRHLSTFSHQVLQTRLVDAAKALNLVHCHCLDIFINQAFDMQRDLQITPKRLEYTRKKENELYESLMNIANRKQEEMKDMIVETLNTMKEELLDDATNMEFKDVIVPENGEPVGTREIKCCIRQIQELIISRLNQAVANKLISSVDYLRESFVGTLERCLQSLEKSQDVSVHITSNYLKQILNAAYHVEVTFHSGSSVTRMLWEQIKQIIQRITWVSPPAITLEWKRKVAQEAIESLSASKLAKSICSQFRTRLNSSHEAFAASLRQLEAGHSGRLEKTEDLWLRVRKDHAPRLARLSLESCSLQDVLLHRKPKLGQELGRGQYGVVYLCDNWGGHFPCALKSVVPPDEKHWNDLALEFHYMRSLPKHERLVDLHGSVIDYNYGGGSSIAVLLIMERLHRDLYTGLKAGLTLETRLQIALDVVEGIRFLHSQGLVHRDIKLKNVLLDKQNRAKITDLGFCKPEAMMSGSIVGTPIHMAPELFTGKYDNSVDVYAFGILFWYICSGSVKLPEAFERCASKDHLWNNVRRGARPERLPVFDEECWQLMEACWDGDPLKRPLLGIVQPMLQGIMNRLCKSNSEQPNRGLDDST

| Structure (SMILES) | inhibition [1] [%] | inhibition [2] [%] | inhibition [3] [%] |
| --- | --- | --- | --- |
| CS(=O)(=O)c1cccc(Nc2nccc(-c3sc(N4CCOCC4)nc3-c3cccc(NS(=O)(=O)c4c(F)cccc4F)c3)n2)c1 | 17 | 55 | 25 |
| COCCNC(=O)c1ccc2c(c1)nc(-c1cnc(-c3ccc(Cl)cc3)[nH]1)n2CCOC | -2.46 | 16.7 | -4.89 |
| CC(C)(C)c1cc(NC(=O)Nc2ccc(Oc3ccncc3)cc2)no1 | -6.09 | 23.3 | -0.31 |
